Assay results as given in the supplement of paper PMC10307832.

Key:
Test in all cases: relative viability (nuclei count vs DMSO), 5 days (fraction); higher = more cells survive
[1] = compound: C[C@]1(O)C[C@@H](c2nc(-c3ccc4ccc(-c5ccccc5)nc4c3)c3c(N)nccn32)C1 [Linsitinib] + Cc1nc(NC(=O)N2CCC[C@H]2C(N)=O)sc1-c1ccnc(C(C)(C)C(F)(F)F)c1 [Alpelisib] (partner 2 µM)
Procedure, shortened: (§1)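 A single step with final 0.05% Triton X-100, 1% formaldehyde and 1 ug/ml Hoechst fixed the cells and stained nuclei 5 days after treatment. Lung cancer cell lines in 1536-well plates had been treated by pin tool the day after seeding with one drug alone or a fixed anchor-drug dose plus five library-drug doses (not always all listed) in √10 steps, and nuclei were counted on 4× images. Relative viability is the ratio of nuclei in treated wells to nuclei in vehicle wells, taken as the median of duplicate plates.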

[2] = compound: Cc1ccc(C(=O)N(CCCN)[C@@H](c2nc3cc(Cl)ccc3c(=O)n2Cc2ccccc2)C(C)C)cc1 [Ispinesib] + COc1cccc2cc(-c3nc([C@H]4CC[C@H](C(=O)O)CC4)n4ncnc(N)c34)[nH]c12 [OSI-027] (partner 0.5 µM)
Procedure, shortened: as §1

[3] = compound: C[C@]1(O)C[C@@H](c2nc(-c3ccc4ccc(-c5ccccc5)nc4c3)c3c(N)nccn32)C1 [Linsitinib] + N=C(N)NC(=N)NCCc1ccccc1 [Phenformin] (partner 250 µM)
Procedure, shortened: as §1

[4] = compound: Cc1ccc(C(=O)N(CCCN)[C@@H](c2nc3cc(Cl)ccc3c(=O)n2Cc2ccccc2)C(C)C)cc1 [Ispinesib] + CS(=O)(=O)N1CCN(Cc2cc3nc(-c4cccc5[nH]ncc45)nc(N4CCOCC4)c3s2)CC1 [Pictilisib] (partner 1 µM)
Procedure, shortened: as §1

Row | Cell Line | relative viability ([1]; first compound 0.01 µM) | relative viability ([1]; first compound 0.03162 µM) | relative viability ([1]; first compound 0.1 µM) | relative viability ([1]; first compound 0.3162 µM) | relative viability ([1]; first compound 1 µM) | relative viability ([2]; first compound 0.001 µM) | relative viability ([2]; first compound 0.003162 µM) | relative viability ([2]; first compound 0.01 µM) | relative viability ([2]; first compound 0.03162 µM) | relative viability ([2]; first compound 0.1 µM) | relative viability ([3]; first compound 0.01 µM) | relative viability ([3]; first compound 0.03162 µM) | relative viability ([3]; first compound 0.1 µM) | relative viability ([3]; first compound 0.3162 µM) | relative viability ([3]; first compound 1 µM) | relative viability ([4]; first compound 0.001 µM) | relative viability ([4]; first compound 0.003162 µM) | relative viability ([4]; first compound 0.01 µM) | relative viability ([4]; first compound 0.03162 µM) | relative viability ([4]; first compound 0.1 µM)
1 | LCLC-103H | 0.896 | 0.943 | 0.975 | 1.09 | 0.942 | 0.562 | 0.585 | 0.527 | 0.366 | 0.357 | 0.397 | 0.344 | 0.324 | 0.327 | 0.303 | 0.6 | 0.624 | 0.682 | 0.495 | 0.572
2 | HOP-62 | 0.862 | 1.09 | 0.949 |  | 0.933 | 0.756 | 1.07 | 1.05 | 0.76 | 0.444 | 0.663 | 0.718 | 0.677 |  | 0.61 | 0.568 | 0.784 | 0.785 | 0.306 | 0.148
3 | NCI-H1793 | 0.71 | 0.734 | 0.738 | 0.615 | 0.738 | 0.275 | 0.343 | 0.294 | 0.22 | 0.16 | 0.362 | 0.373 | 0.369 | 0.271 | 0.282 | 0.331 | 0.404 | 0.39 | 0.217 | 0.124
4 | NCI-H1355 | 0.78 | 0.718 | 0.675 | 0.632 | 0.549 | 0.352 | 0.442 | 0.427 | 0.316 | 0.261 | 0.452 | 0.447 | 0.393 | 0.32 | 0.304 | 0.418 | 0.434 | 0.489 | 0.252 | 0.198
5 | COR-L23 | 0.725 | 0.907 | 0.769 | 0.623 | 0.55 | 0.808 | 0.918 | 0.931 | 0.357 | 0.214 | 0.434 | 0.414 | 0.467 | 0.347 | 0.469 | 0.895 | 0.863 | 0.908 | 0.181 | 0.235
6 | HCC-44 | 0.751 | 0.677 | 0.691 | 0.499 | 0.606 | 0.458 | 0.812 | 0.505 | 0.484 | 0.151 | 0.181 | 0.232 | 0.174 | 0.143 | 0.136 | 0.768 | 0.858 | 0.68 | 0.646 | 0.106
7 | A-427 | 1.11 | 1.02 | 1.05 |  | 0.997 | 0.508 | 0.449 | 0.571 | 0.155 | 0.181 | 0.383 | 0.321 | 0.301 |  | 0.233 | 0.805 | 0.829 | 0.891 | 0.388 | 0.177
8 | NCI-H520 | 0.873 | 0.762 | 0.97 |  | 0.962 | 0.249 | 0.218 | 0.276 | 0.19 | 0.169 | 0.567 | 0.53 | 0.607 |  | 0.547 | 0.353 | 0.276 | 0.295 | 0.181 | 0.172
9 | LXF-289 | 0.992 | 0.988 | 1.1 | 0.841 | 1.02 | 0.813 | 0.834 | 0.806 | 0.593 | 0.0721 | 0.5 | 0.448 | 0.523 |  | 0.471 | 0.846 | 0.812 | 0.909 | 0.709 | 0.123
